Laboratory results as given in publication PMC7156612, “Olinciguat, an Oral sGC Stimulator, Exhibits Diverse Pharmacology Across Preclinical Models of Cardiovascular, Metabolic, Renal, and Inflammatory Disease” (Frontiers in Pharmacology, 2020).

What was measured:
[1] = Mass balance/excretion of [14C]-olinciguat in rats; format: in vivo, rat; conditions: male Sprague-Dawley rats, single oral dose 3 mg/kg; for equivalents excreted in the feces, percent of administered dose: 3 mg/kg
Procedure: [^14C]-olinciguat, uniformly labeled with [^14C] in the fluorobenzyl ring and having a specific activity of 110 mCi/mmol, was synthesized at American Radiolabeled Chemicals, Inc. (St. Louis, MO). The radiochemical purity was determined to be >99%. Four male Sprague-Dawley rats (approximately 8 weeks old) received a single p.o. dose of 3 mg/kg [^14C]-olinciguat (specific activity 26.6 µCi/mg) in PEG 400:water 60:40 v/v (dosing volume ≤5 ml/kg). Using a single metabolism cage (Nalgene) for each rat, urine and feces were collected for 7 days at 24-h intervals, and cages were rinsed daily. Food was available ad libitum throughout the study, except for the overnight fasting period (16–18 h) before and 4 h after olinciguat administration. Deionized water was available ad libitum. After 7 days, tissues were collected. Urine, feces, liver, kidneys, and cage washes were analyzed to determine material balance.

[2] = Rat post-myocardial infarction model; format: in vivo; conditions: male, Sprague-Dawley, rat, plasma, oral; MI rats, 30 mg/kg/day in chow; read-out: olinciguat plasma concentration at week 8
Procedure: (§1) Male Sprague-Dawley rats (n = 24, 270–330 g) were studied. MI was induced by permanent ligation of the left anterior descending (LAD) coronary artery. Briefly, after anesthesia with 5% isoflurane, rats were intubated and ventilated using a small animal ventilator (Model 683, Harvard Apparatus). Surgery was performed under sterile conditions. Briefly, the heart was exposed through left thoracotomy, the pericardium was incised, and the LAD coronary artery was ligated with 4-0 silk suture (Ethicon, Inc.). The lungs were inflated, and the chest wall was closed in three layers. Approximately 100 µl of 0.25% marcaine was applied directly to the edge of the skin incision. Long-acting buprenorphine (1 mg/kg/day, s.c.) was administered after the surgery for postoperative pain relief. Sham-operated rats underwent the same procedure without ligation of the LAD.
(§2) Treatment was initiated within 24 h following surgery. The Sham and MI control groups were maintained on chow for the entire 8-week treatment period. Rats in the MI + olinciguat group received olinciguat in chow at the targeted dose of 30 mg/kg/day for the entire 8-week treatment period. Ejection fraction (EF) was measured at week 8 by echocardiography using the long axis view of the left ventricle in B-mode.
(§3) In the post-MI study, data were analyzed by one-way ANOVA, followed by Dunnett's multiple comparison to the MI group.

[3] = system: Sprague-Dawley rats with LAD ligation (post-MI); test: Rat post-myocardial infarction model; format: in vivo; conditions: 30 mg/kg/day, total plasma concentration x 1.0% free
Procedure: as §1, §2, §3

With `NC(=O)[C@](O)(CNc1nc(-c2cc(-c3ccon3)n(Cc3ccccc3F)n2)ncc1F)C(F)(F)F` [olinciguat, (R)-3,3,3-trifluoro-2-(((5-fluoro-2-(1-(2-fluorobenzyl)-5-(isoxazol-3-yl)-1H-pyrazol-3-yl)pyrimidin-4-yl)amino)methyl)-2-hydroxypropanamide] the “administered dose radioactivity recovered in feces and urine within the first 48 h” value [1] was 95%, the “equivalents excreted in the urine, percent of administered dose” value ([1]; over 7 days) was 5.7% and the “equivalents excreted in the feces, percent of administered dose” value ([1]; over 7 days) was > 95%. The “equivalents excreted in the feces, percent of administered dose” value ([1]; over 7 days, listed as [^14C]-olinciguat) was 95.3%, the concentration at 8 weeks [2] was 167 ± 11 nM and the “Olinciguat concentration (free)” value [3] was 1.6–1.8 nM^e.
